Literature values as cited in patent US20030069213A1, “ORAL PREPARATION” (priority 1997, published 2003).
≈ marks a conversion by molar mass, not a printed value. Structures can show the parent of a compound that is named as a salt. Where two headings read alike, the source gives them in different places.

How the values were obtained:
[1] = dissolved in water
[2] = not given; remark: listed apart in the source

## OC[C@H]1O[C@@](CO)(O[C@H]2O[C@H](CO)[C@@H](O)[C@H](O)[C@H]2O)[C@@H](O)[C@@H]1O [sucrose]
[1]
  heat of dissolution: -4.5 cal/g
[1]; listed as Sucrose
  heat of dissolution: Sucrose (−4.5) cal/g

## Clc1ccccc1CN1CCc2sccc2C1 [ticlopidine hydrochloride]
other
  pKa: 6.93

## NC[C@H]1CC[C@H](C(=O)Oc2ccc(CCC(=O)O)cc2)CC1 [cetraxate hydrochloride]
other
  pKa (amino group): 10.5
  pKa (carboxyl group): 4.5
[2]; pH 2.8, 22° C.
  solubility in water: 27 mg/mL
[2]; pH 5.9, 22° C.
  solubility in water: 0.4 mg/mL

## CN/C(=N/CCSCc1nc[nH]c1C)NC#N [cimetidine]
other
  pKa: 7.1
[2]; pH 6.5, 25° C.
  solubility in water: 30 mg/mL (≈ 119 mM)
[2]; pH 8.3, 25° C.
  solubility in water: 5.3 mg/mL (≈ 21 mM)

## OC[C@@H](O)[C@@H](O)[C@H](O)[C@@H](O)CO [sorbitol]
[1]
  heat of dissolution: -24.1 cal/g
[1]; listed as D-Sorbitol
  heat of dissolution: (−24.1) cal/g

## OC[C@@H](O)[C@@H](O[C@H]1O[C@H](CO)[C@@H](O)[C@H](O)[C@H]1O)[C@H](O)[C@@H](O)CO [maltitol]
[1]
  heat of dissolution: -5.5 cal/g
[1]; listed as Maltitol
  heat of dissolution: Maltitol (−5.5) cal/g

## OC[C@@H](O)[C@@H](O)CO [erythritol]
[1]
  heat of dissolution: -42.9 cal/g

## OC[C@@H](O)[C@@H](O)[C@H](O)[C@H](O)CO [mannitol]
[1]
  heat of dissolution: -28.9 cal/g
[1]; listed as D-Mannitol
  heat of dissolution: (−28.9) cal/g

## OC[C@@H](O)[C@H](O)[C@@H](O)CO [xylitol]
[1]
  heat of dissolution: -35 cal/g
[1]; listed as Xylitol
  heat of dissolution: Xylitol (−35) cal/g

## NC[C@H]1CC[C@H](C(=O)O)CC1 [tranexamic acid]
other
  pKa (amino group): 10.65
  pKa (carboxyl group): 4.33
